Where two headings read alike, the source gives them in different places.
Assays:
[1] = not given; remark: listed apart in the source

CC(C)Cc1ccc(C(C)C(=O)O)cc1 (racemic) [ibuprofen, (RS)-2-(4-(2-methylpropyl)phenyl)propanoic acid]
Mole fraction solubility (DES betaine + TEG 1:2, x*DES 1.0, 25°C): 0.3209±0.0024 mole fraction | Mole fraction solubility (DES betaine + TEG 1:2, x*DES 1.0, 30°C): 0.3830±0.0062 mole fraction | Mole fraction solubility (DES betaine + TEG 1:2, x*DES 1.0, 35°C): 0.4548±0.0069 mole fraction | Mole fraction solubility (DES betaine + TEG 1:2, x*DES 1.0, 40°C): 0.5444±0.0067 mole fraction | Mole fraction solubility (DES choline chloride + TEG 1:2, x*DES 1.0, 25°C): 0.3528±0.0029 mole fraction | Mole fraction solubility (DES choline chloride + TEG 1:2, x*DES 1.0, 30°C): 0.4366±0.0077 mole fraction | Mole fraction solubility (DES choline chloride + TEG 1:2, x*DES 1.0, 35°C): 0.5483±0.0115 mole fraction | Mole fraction solubility (DES choline chloride + TEG 1:2, x*DES 1.0, 40°C): 0.6784±0.0040 mole fraction | Mole fraction solubility (aqueous DES betaine + TEG 1:2, x*DES 0.1, 25°C): 0.0396±0.0003 mole fraction | Mole fraction solubility (aqueous DES betaine + TEG 1:2, x*DES 0.1, 30°C): 0.0475±0.0007 mole fraction | Mole fraction solubility (aqueous DES betaine + TEG 1:2, x*DES 0.1, 35°C): 0.0561±0.0003 mole fraction | Mole fraction solubility (aqueous DES betaine + TEG 1:2, x*DES 0.1, 40°C): 0.0688±0.0013 mole fraction | Mole fraction solubility (aqueous DES betaine + TEG 1:2, x*DES 0.2, 25°C): 0.0911±0.0020 mole fraction | Mole fraction solubility (aqueous DES betaine + TEG 1:2, x*DES 0.2, 30°C): 0.1077±0.0009 mole fraction | Mole fraction solubility (aqueous DES betaine + TEG 1:2, x*DES 0.2, 35°C): 0.1301±0.0019 mole fraction | Mole fraction solubility (aqueous DES betaine + TEG 1:2, x*DES 0.2, 40°C): 0.1547±0.0024 mole fraction | Mole fraction solubility (aqueous DES betaine + TEG 1:2, x*DES 0.3, 25°C): 0.1423±0.0035 mole fraction | Mole fraction solubility (aqueous DES betaine + TEG 1:2, x*DES 0.3, 30°C): 0.1670±0.0021 mole fraction | Mole fraction solubility (aqueous DES betaine + TEG 1:2, x*DES 0.3, 35°C): 0.2005±0.0018 mole fraction | Mole fraction solubility (aqueous DES betaine + TEG 1:2, x*DES 0.3, 40°C): 0.2400±0.0050 mole fraction | Mole fraction solubility (aqueous DES betaine + TEG 1:2, x*DES 0.4, 25°C): 0.1950±0.0030 mole fraction | Mole fraction solubility (aqueous DES betaine + TEG 1:2, x*DES 0.4, 30°C): 0.2288±0.0034 mole fraction | Mole fraction solubility (aqueous DES betaine + TEG 1:2, x*DES 0.4, 35°C): 0.2772±0.0045 mole fraction | Mole fraction solubility (aqueous DES betaine + TEG 1:2, x*DES 0.4, 40°C): 0.3302±0.0064 mole fraction | Mole fraction solubility (aqueous DES betaine + TEG 1:2, x*DES 0.5, 25°C): 0.2459±0.0052 mole fraction | Mole fraction solubility (aqueous DES betaine + TEG 1:2, x*DES 0.5, 30°C): 0.2949±0.0045 mole fraction | Mole fraction solubility (aqueous DES betaine + TEG 1:2, x*DES 0.5, 35°C): 0.3502±0.0073 mole fraction | Mole fraction solubility (aqueous DES betaine + TEG 1:2, x*DES 0.5, 40°C): 0.4150±0.0056 mole fraction | Mole fraction solubility (aqueous DES betaine + TEG 1:2, x*DES 0.6, 25°C): 0.2941±0.0043 mole fraction | Mole fraction solubility (aqueous DES betaine + TEG 1:2, x*DES 0.6, 30°C): 0.3535±0.0052 mole fraction | Mole fraction solubility (aqueous DES betaine + TEG 1:2, x*DES 0.6, 35°C): 0.4213±0.0098 mole fraction | Mole fraction solubility (aqueous DES betaine + TEG 1:2, x*DES 0.6, 40°C): 0.5066±0.0066 mole fraction | Mole fraction solubility (aqueous DES betaine + TEG 1:2, x*DES 0.7, 25°C): 0.3409±0.0049 mole fraction | Mole fraction solubility (aqueous DES betaine + TEG 1:2, x*DES 0.7, 30°C): 0.4057±0.0067 mole fraction | Mole fraction solubility (aqueous DES betaine + TEG 1:2, x*DES 0.7, 35°C): 0.4779±0.0128 mole fraction | Mole fraction solubility (aqueous DES betaine + TEG 1:2, x*DES 0.7, 40°C): 0.5883±0.0063 mole fraction | Mole fraction solubility (aqueous DES betaine + TEG 1:2, x*DES 0.8, 25°C): 0.3800±0.0058 mole fraction | Mole fraction solubility (aqueous DES betaine + TEG 1:2, x*DES 0.8, 25°C, listed as IP): 0.380 mole fraction | Mole fraction solubility (aqueous DES betaine + TEG 1:2, x*DES 0.8, 30°C): 0.4493±0.0062 mole fraction | Mole fraction solubility (aqueous DES betaine + TEG 1:2, x*DES 0.8, 35°C): 0.5335±0.0056 mole fraction | Mole fraction solubility (aqueous DES betaine + TEG 1:2, x*DES 0.8, 40°C): 0.6375±0.0137 mole fraction | Mole fraction solubility (aqueous DES betaine + TEG 1:2, x*DES 0.9, 25°C): 0.3582±0.0053 mole fraction | Mole fraction solubility (aqueous DES betaine + TEG 1:2, x*DES 0.9, 30°C): 0.4279±0.0034 mole fraction | Mole fraction solubility (aqueous DES betaine + TEG 1:2, x*DES 0.9, 35°C): 0.5040±0.0073 mole fraction | Mole fraction solubility (aqueous DES betaine + TEG 1:2, x*DES 0.9, 40°C): 0.6012±0.0090 mole fraction | Mole fraction solubility (aqueous DES choline chloride + TEG 1:2, x*DES 0.1, 25°C): 0.0211±0.0003 mole fraction | Mole fraction solubility (aqueous DES choline chloride + TEG 1:2, x*DES 0.1, 30°C): 0.0257±0.0001 mole fraction | Mole fraction solubility (aqueous DES choline chloride + TEG 1:2, x*DES 0.1, 35°C): 0.0318±0.0006 mole fraction | Mole fraction solubility (aqueous DES choline chloride + TEG 1:2, x*DES 0.1, 40°C): 0.0386±0.0006 mole fraction | Mole fraction solubility (aqueous DES choline chloride + TEG 1:2, x*DES 0.2, 25°C): 0.0641±0.0005 mole fraction | Mole fraction solubility (aqueous DES choline chloride + TEG 1:2, x*DES 0.2, 30°C): 0.0783±0.0007 mole fraction | Mole fraction solubility (aqueous DES choline chloride + TEG 1:2, x*DES 0.2, 35°C): 0.0973±0.0012 mole fraction | Mole fraction solubility (aqueous DES choline chloride + TEG 1:2, x*DES 0.2, 40°C): 0.1210±0.0019 mole fraction | Mole fraction solubility (aqueous DES choline chloride + TEG 1:2, x*DES 0.3, 25°C): 0.1227±0.0023 mole fraction | Mole fraction solubility (aqueous DES choline chloride + TEG 1:2, x*DES 0.3, 30°C): 0.1520±0.0019 mole fraction | Mole fraction solubility (aqueous DES choline chloride + TEG 1:2, x*DES 0.3, 35°C): 0.1876±0.0024 mole fraction | Mole fraction solubility (aqueous DES choline chloride + TEG 1:2, x*DES 0.3, 40°C): 0.2338±0.0048 mole fraction | Mole fraction solubility (aqueous DES choline chloride + TEG 1:2, x*DES 0.4, 25°C): 0.1961±0.0021 mole fraction | Mole fraction solubility (aqueous DES choline chloride + TEG 1:2, x*DES 0.4, 30°C): 0.2424±0.0032 mole fraction | Mole fraction solubility (aqueous DES choline chloride + TEG 1:2, x*DES 0.4, 35°C): 0.2953±0.0062 mole fraction | Mole fraction solubility (aqueous DES choline chloride + TEG 1:2, x*DES 0.4, 40°C): 0.3695±0.005 mole fraction | Mole fraction solubility (aqueous DES choline chloride + TEG 1:2, x*DES 0.5, 25°C): 0.2548±0.0063 mole fraction | Mole fraction solubility (aqueous DES choline chloride + TEG 1:2, x*DES 0.5, 30°C): 0.3205±0.0083 mole fraction | Mole fraction solubility (aqueous DES choline chloride + TEG 1:2, x*DES 0.5, 35°C): 0.3919±0.0029 mole fraction | Mole fraction solubility (aqueous DES choline chloride + TEG 1:2, x*DES 0.5, 40°C): 0.4807±0.0064 mole fraction | Mole fraction solubility (aqueous DES choline chloride + TEG 1:2, x*DES 0.6, 25°C): 0.2992±0.0052 mole fraction | Mole fraction solubility (aqueous DES choline chloride + TEG 1:2, x*DES 0.6, 30°C): 0.3723±0.0052 mole fraction | Mole fraction solubility (aqueous DES choline chloride + TEG 1:2, x*DES 0.6, 35°C): 0.4667±0.0108 mole fraction | Mole fraction solubility (aqueous DES choline chloride + TEG 1:2, x*DES 0.6, 40°C): 0.5790±0.0052 mole fraction | Mole fraction solubility (aqueous DES choline chloride + TEG 1:2, x*DES 0.7, 25°C): 0.3351±0.0045 mole fraction | Mole fraction solubility (aqueous DES choline chloride + TEG 1:2, x*DES 0.7, 30°C): 0.4232±0.0081 mole fraction | Mole fraction solubility (aqueous DES choline chloride + TEG 1:2, x*DES 0.7, 35°C): 0.5264±0.0138 mole fraction | Mole fraction solubility (aqueous DES choline chloride + TEG 1:2, x*DES 0.7, 40°C): 0.6531±0.0080 mole fraction | Mole fraction solubility (aqueous DES choline chloride + TEG 1:2, x*DES 0.8, 25°C): 0.3673±0.0062 mole fraction | Mole fraction solubility (aqueous DES choline chloride + TEG 1:2, x*DES 0.8, 30°C): 0.4557±0.0051 mole fraction | Mole fraction solubility (aqueous DES choline chloride + TEG 1:2, x*DES 0.8, 35°C): 0.5712±0.0136 mole fraction | Mole fraction solubility (aqueous DES choline chloride + TEG 1:2, x*DES 0.8, 40°C): 0.7095±0.0082 mole fraction | Mole fraction solubility (aqueous DES choline chloride + TEG 1:2, x*DES 0.9, 25°C): 0.3754±0.0036 mole fraction | Mole fraction solubility (aqueous DES choline chloride + TEG 1:2, x*DES 0.9, 25°C, listed as IP): 0.375 mole fraction | Mole fraction solubility (aqueous DES choline chloride + TEG 1:2, x*DES 0.9, 30°C): 0.4619±0.0105 mole fraction | Mole fraction solubility (aqueous DES choline chloride + TEG 1:2, x*DES 0.9, 35°C): 0.5742±0.0073 mole fraction | Mole fraction solubility (aqueous DES choline chloride + TEG 1:2, x*DES 0.9, 40°C): 0.7138±0.0065 mole fraction | Mole fraction solubility ([1]; neat DES betaine-DEG 1:1, 25°C): 0.223±0.0026 mole fraction | Mole fraction solubility ([1]; neat DES betaine-GLY 1:2, 25°C, listed as IP): 0.297 mole fraction | Mole fraction solubility ([1]; neat DES betaine-P2D 1:1, 25°C): 0.1561±0.0027 mole fraction | Mole fraction solubility ([1]; neat DES betaine-P2D 1:2, 25°C): 0.1919±0.0023 mole fraction | Mole fraction solubility ([1]; neat DES betaine-P2D 1:4, 25°C): 0.2062±0.0014 mole fraction | Mole fraction solubility ([1]; neat DES betaine-TEG 1:2, 25°C, listed as IP): 0.321 mole fraction | Mole fraction solubility ([1]; neat DES choline chloride-B3D 1:1, 25°C): 0.1584±0.0030 mole fraction | Mole fraction solubility ([1]; neat DES choline chloride-B3D 1:4, 25°C): 0.1899±0.0025 mole fraction | Mole fraction solubility ([1]; neat DES choline chloride-ETG 1:1, 25°C): 0.2167±0.0034 mole fraction | Mole fraction solubility ([1]; neat DES choline chloride-ETG 1:2, 25°C): 0.3072±0.0025 mole fraction | Mole fraction solubility ([1]; neat DES choline chloride-ETG 1:4, 25°C): 0.2905±0.0061 mole fraction | Mole fraction solubility ([1]; neat DES choline chloride-GLY 1:1, 25°C): 0.2793±0.0019 mole fraction | Mole fraction solubility ([1]; neat DES choline chloride-GLY 1:2, 25°C): 0.3495±0.0031 mole fraction | Mole fraction solubility ([1]; neat DES choline chloride-GLY 1:2, 25°C, listed as IP): 0.349 mole fraction | Mole fraction solubility ([1]; neat DES choline chloride-GLY 1:4, 25°C): 0.3187±0.0038 mole fraction | Mole fraction solubility ([1]; neat DES choline chloride-P2D 1:1, 25°C): 0.1611±0.0024 mole fraction | Mole fraction solubility ([1]; neat DES choline chloride-P2D 1:2, 25°C): 0.2068±0.0046 mole fraction | Mole fraction solubility ([1]; neat DES choline chloride-TEG 1:2, 25°C, listed as IP): 0.353 mole fraction
